Measurements reported in ChEMBL document CHEMBL1201862, “PubChem BioAssay data set” (2004).
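Method: 48-hour compound exposure of cells in 96-well plates, five concentrations, linear interpolation of endpoints. GI50 is the concentration that inhibits growth by half.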 Calls of active or inactive are those of the source. No stated cut-off is given here; in the data, active = GI50 up to about 1.1 µM and inactive = higher.

What was measured:
Experiment in all cases: DTP human tumour cell line panel, 48 h
CCRF-CEM = system: CCRF-CEM
NCI-H522 = system: NCI-H522
MDA-MB-231 = system: MDA-MB-231
SNB-19 = system: SNB-19
NCI/ADR-RES = system: NCI/ADR-RES
EKVX = system: EKVX
DMS-273 = system: DMS-273
UO-31 = system: UO-31
COLO 205 = system: COLO 205
MDA-N = system: MDA-N
M19-MEL = system: M19-MEL
DLD-1 = system: DLD-1
SF-268 = system: SF-268
U-251 = system: U-251
NCI-H226 = system: NCI-H226
786-0 = system: 786-0
A498 = system: A498
HOP-18 = system: HOP-18
TK-10 = system: TK-10
K562 = system: K562
NCI-H23 = system: NCI-H23
A549 = system: A549
SK-MEL-28 = system: SK-MEL-28
HOP-92 = system: HOP-92
HCT-116 = system: HCT-116
OVCAR-8 = system: OVCAR-8
LOX IMVI = system: LOX IMVI
Malme-3M = system: Malme-3M
HL-60 = system: HL-60
T47D = system: T47D
OVCAR-5 = system: OVCAR-5
Hs-578T = system: Hs-578T
OVCAR-4 = system: OVCAR-4
LXFL 529 = system: LXFL 529
ACHN = system: ACHN
SK-OV-3 = system: SK-OV-3
SNB-75 = system: SNB-75
UACC-62 = system: UACC-62
SW-620 = system: SW-620
IGROV-1 = system: IGROV-1
NCI-H460 = system: NCI-H460
MCF7 = system: MCF7
RXF 393 = system: RXF 393
CAKI-1 = system: CAKI-1
MOLT-4 = system: MOLT-4
SK-MEL-5 = system: SK-MEL-5
M14 = system: M14
PC-3 = system: PC-3
KM12 = system: KM12
SNB-78 = system: SNB-78
SN12C = system: SN12C
SR = system: SR
BT-549 = system: BT-549
OVCAR-3 = system: OVCAR-3
DMS-114 = system: DMS-114
HCC 2998 = system: HCC 2998
SF-295 = system: SF-295
UACC-257 = system: UACC-257
SK-MEL-2 = system: SK-MEL-2
HT-29 = system: HT-29
RPMI-8226 = system: RPMI-8226
XF498 = system: XF498
HCT-15 = system: HCT-15
HOP-62 = system: HOP-62
MDA-MB-435 = system: MDA-MB-435
SF-539 = system: SF-539
DU-145 = system: DU-145

Measured: GI50

C[n+]1ccn2c3nc4ccccc4nc3c([O-])c(C#N)c21
> 10 µM: HCT-15
inactive: CCRF-CEM > 100 µM | NCI-H522 > 10 µM | MDA-MB-231 > 100 µM | SNB-19 > 100 µM | NCI/ADR-RES > 34.2 µM | EKVX > 100 µM | DMS-273 > 100 µM | UO-31 > 100 µM | COLO 205 > 100 µM | MDA-N > 100 µM | SF-268 > 100 µM | U-251 > 100 µM | NCI-H226 > 100 µM | 786-0 > 48.5 µM | A498 > 100 µM | HOP-18 84.7 µM | TK-10 > 10 µM | K562 > 100 µM | NCI-H23 > 100 µM | A549 > 29.5 µM | SK-MEL-28 > 100 µM | HOP-92 > 100 µM | HCT-116 > 100 µM | OVCAR-8 > 56.6 µM | LOX IMVI > 100 µM | Malme-3M > 100 µM | HL-60 > 100 µM | T47D > 100 µM | OVCAR-5 > 10 µM | Hs-578T > 100 µM | OVCAR-4 > 100 µM | LXFL 529 > 100 µM | ACHN > 100 µM | SK-OV-3 > 100 µM | SNB-75 > 100 µM | UACC-62 > 100 µM | SW-620 > 100 µM | IGROV-1 > 31.4 µM | NCI-H460 > 10 µM | MCF7 88.9 µM | RXF 393 > 65.9 µM | CAKI-1 > 100 µM | MOLT-4 > 100 µM | SK-MEL-5 > 4.65 µM | M14 > 100 µM | PC-3 > 100 µM | KM12 > 10 µM | SNB-78 > 100 µM | SN12C > 100 µM | SR > 100 µM | BT-549 > 100 µM | OVCAR-3 > 100 µM | DMS-114 > 100 µM | HCC 2998 > 10 µM | SF-295 > 100 µM | UACC-257 > 100 µM | SK-MEL-2 > 4.65 µM | HT-29 > 100 µM | RPMI-8226 > 100 µM | XF498 > 100 µM | HOP-62 > 10 µM | MDA-MB-435 > 100 µM | SF-539 > 100 µM | DU-145 > 100 µM
active: M19-MEL < 0.01 µM | DLD-1 < 0.01 µM

O=C1NP23(OCCO2)Oc2ccccc2C3(C(F)(F)F)O1 (centres undefined)
inactive: CCRF-CEM > 100 µM | NCI-H522 > 100 µM | SNB-19 > 100 µM | DMS-273 > 100 µM | M19-MEL > 100 µM | DLD-1 > 100 µM | SF-268 > 100 µM | U-251 > 100 µM | NCI-H226 > 100 µM | HOP-18 > 100 µM | TK-10 > 100 µM | K562 > 100 µM | NCI-H23 > 100 µM | A549 > 100 µM | SK-MEL-28 > 100 µM | HCT-116 > 100 µM | OVCAR-8 > 100 µM | LOX IMVI > 100 µM | Malme-3M > 100 µM | HL-60 > 100 µM | OVCAR-4 > 100 µM | LXFL 529 > 100 µM | ACHN > 100 µM | SK-OV-3 > 100 µM | SNB-75 > 100 µM | UACC-62 > 100 µM | NCI-H460 78.3 µM | MOLT-4 > 100 µM | SK-MEL-5 > 100 µM | M14 > 100 µM | KM12 > 100 µM | SNB-78 > 100 µM | SN12C > 100 µM | OVCAR-3 > 100 µM | DMS-114 > 100 µM | SF-295 > 100 µM | UACC-257 > 100 µM | SK-MEL-2 > 100 µM | HT-29 > 100 µM | XF498 > 100 µM | SF-539 > 100 µM
72.3 µM: HCT-15
